In patent US20110166144A1, “Pyrimidotriazinediones and Pyrimidopyrimidinediones and Methods of Using the Same” (THE REGENTS OF THE UNIVERSITY OF MICHIGAN, priority 2008, published 2011):
Like-named read-outs stand apart in the source and are kept apart here.

What was measured:
[1] = test system: β-catenin/TCF complex; experiment: cells; type: cell-based
[2] = test system: IEC18 Rat Epithelial Cells (IEC18-S33Y); conditions: 17-20 h with compound, WST-1
Description: Using the above assay system, IC50 and LD50 values were determined for the pyrimidotriazinedione compounds. IEC18-S33Y cells carrying a β-catenin firefly luciferase cassette and a constitutively active renilla luciferase cassette were seeded at 40,000 cells/well in 96-well tissue culture plates (BD Biosciences, Bedford, Mass.) in a total volume of 80 μL of tissue culture medium (Dulbecco's modified Eagle medium without Phenol-Red (Invitrogen, Carlsbad, Calif.) supplemented with 10% (v/v) fetal bovine serum (Hyclone, Logan, Utah)) and incubated for 24 h. […] Working solutions of the compounds were obtained by further diluting the stock solutions in tissue culture medium by at least 50-fold. Serial twofold dilutions of the working solutions of the compounds were added to the cells in a volume of 40 μL and the cells were incubated in the presence of the compounds for 17-20 h.
LD50 values of the pyrimidotriazinediones then were determined using a WST-1 colorimetric cell proliferation assay. A mixture containing 20 μL of medium and 10 μL of WST-1 reagent (available from Roche, Indianapolis, Ind.) was added to the cells and the cells were incubated for 1 h at 37° C., after which time absorption at 550 nm was measured using a microplate reader.

[3] = Pharmacokinetic properties in mice (plasma level by HPLC/MS); type: in vivo; conditions: 10 mg/kg, plasma 1 minute to 12 hours post-injection
Description: The pharmacokinetic properties of a substituted pyrimido[5,4-e][1,2,4]triazine-5,7(6H,8H)-dione of formula II (3-(4-(2-(Diethylamino)ethoxy)phenyl)-8-(3,4-difluorobenzyl)-6-methylpyrimido[5,4-e][1,2,4]triazine-5,7(6H,8H)-dione) in mice were determined by dosing a cohort of mice with 10 mg/kg compound. Blood was drawn from the mice at various time points (1 minute, 15 minutes, 30 minutes, 3 hours, 6 hours, and 12 hours) post-injection. The blood plasma was isolated from the drawn blood and the amount of compound present in the plasma was measured by HPLC with peak analysis by mass spectrometry.

[4] = Rattus norvegicus, IEC18-S33Y cells, 17-20 h with compound, β-catenin-dependent firefly luciferase with Renilla control, read-out: IC50

| SMILES | melting point | LD50 [2] | IC50 [1, 4] | further results |
| --- | --- | --- | --- | --- |
| Cc1ccc(Cn2c(=O)n(C)c(=O)c3nc(-c4ccccc4F)nnc32)cc1 | 320 °C (dec.) | – | – | – |
| COc1ccc(-c2nc3c(=O)n(C)c(=O)nc-3n(CCO)n2)cc1 [Compound 8e, 1-(2-Hydroxyethyl)-3-(4-methoxyphenyl)-6-methylpyrimido[5,4-e][1,2,4]triazine-5,7(1H,6H)-5,7-dione] | – | 8.39 ± 10.29 µM | – | IC50 ([1]; IEC18-S33Y cells, 17-20 h with compound, β-catenin-dependent firefly luciferase with Renilla control, read-out: IC50): 6070 ± 4910 nM |
| CN(C)c1ccc(-c2nc3c(=O)n(C)c(=O)nc-3n(CCO)n2)cc1 [Compound 8i, 3-(4-(Dimethylamino)phenyl)-1-(2-hydroxyethyl)-6-methylpyrimido[5,4-e][1,2,4]triazine-5,7(1H,6H)-dione] | 170 to 180 °C (dec.) | – | – | – |
| CCN(CC)CCOc1ccc(-c2nnc3c(n2)c(=O)n(C)c(=O)n3Cc2ccc(F)c(F)c2)cc1 [Compound 10g, 3-(4-(2-(Diethylamino)ethoxy)phenyl)-8-(3,4-difluorobenzyl)-6-methylpyrimido[5,4-e][1,2,4]triazine-5,7(6H,8H)-dione] | – | 2.57 ± 10.99 µM | 700 ± 130 nM | pharmacokinetic properties as assessed by peak plasma level and half-life [3]: favorable pharmacokinetic properties |
| Cn1c(=O)nc2n(CCO)nc(-c3ccc(Cl)c(Cl)c3)nc-2c1=O | 208 to 211 °C (dec.) | – | – | – |
| Cn1c(=O)c2nc(-c3ccccc3)nnc2n(Cc2ccc(F)cc2)c1=O | 253 to 254 °C | – | – | – |
| Cc1nc2c(=O)n(C)c(=O)nc-2n(C)n1 [Compound 5b, 1,3,6-Trimethylpyrimido[5,4-e][1,2,4]triazine-5,7(1H,6H)-dione] | – | 2.02 ± 0.75 µM | 1000 ± 190 nM | – |
| Cn1nc(-c2ccccc2)nc2c(=O)n(C)c(=O)nc1-2 [Compound 5d, 1,6-Dimethyl-3-phenylpyrimido[5,4-e][1,2,4]triazine-5,7(1H,6H)-dione] | – | 1.39 ± 0.44 µM | 530 ± 100 nM | – |
| Cn1c(=O)c2nc(-c3ccccc3)nnc2n(Cc2ccc(C(F)(F)F)cc2)c1=O | 225 to 227 °C (dec.) | – | – | – |
| Cn1c(=O)c2nc(-c3ccc(Cl)cc3)nnc2n(Cc2ccccc2F)c1=O | 251 to 254 °C | – | – | – |
| COc1ccc(-c2nnc3c(n2)c(=O)n(C)c(=O)n3Cc2ccc(F)cc2)cc1 [Compound 7j, 8-(4-Fluorobenzyl)-3-(4-methoxyphenyl)-6-methylpyrimido[5,4-e][1,2,4]triazine-5,7(6H,8H)-dione] | 230 to 234 °C (dec.) | – | – | – |
| CCCn1c(=O)n(C)c(=O)c2nc(-c3ccc(Cl)cc3)nnc21 | 202 to 205 °C | – | – | – |
| Cn1c(=O)nc2n(CCO)nc(-c3ccccc3)nc-2c1=O [Compound 8a, 1-(2-Hydroxyethyl)-6-methyl-3-phenylpyrimido[5,4-e][1,2,4]triazine-5,7(1H,6H)-dione] | – | 2.09 ± 0.78 µM | 970 ± 220 nM | – |
| Cn1c(=O)c2nc(-c3ccc(F)cc3)nnc2n(Cc2ccc(C(C)(C)C)cc2)c1=O [Compound 7h, 8-(4-tert-Butylbenzyl)-3-(4-fluorophenyl)-6-methylpyrimido[5,4-e][1,2,4]triazine-5,7(6H,8H)-dione] | – | – | 330 ± 10 nM | – |
| CCN(CC)CCOc1ccc(-c2nnc3c(n2)c(=O)n(C)c(=O)n3Cc2cccc(F)c2)cc1 [Compound 10c, 3-(4-(2-(Diethylamino)ethoxy)phenyl)-8-(3-fluorobenzyl)-6-methylpyrimido[5,4-e][1,2,4]triazine-5,7(6H,8H)-dione] | – | 21.49 ± 10.42 µM | 23400 ± 2830 nM | – |
| Cn1nc(-c2cccc([N+](=O)[O-])c2)nc2c(=O)n(C)c(=O)nc1-2 | 223 to 224 °C | – | – | – |
| Cn1c(=O)c2nc(-c3ccccc3F)nnc2n(Cc2ccccc2)c1=O [Compound 7d, 8-Benzyl-3-(2-fluorophenyl)-6-methylpyrimido[5,4-e][1,2,4]triazine-5,7(6H,8H)-dione] | – | – | 3600 ± 2250 nM | – |
| Cn1nc(-c2ccccc2F)nc2c(=O)[nH]c(=O)nc1-2 [Compound 17a, 3-(2-Fluorophenyl)-1-methylpyrimido[5,4-e][1,2,4]triazine-5,7(1H,6H)-dione] | 240 to 247 °C (dec.) | – | – | – |
| Cn1nc(-c2cccc(Cl)c2)nc2c(=O)n(C)c(=O)nc1-2 [Compound 5i, 3-(3-Chlorophenyl)-1,6-dimethylpyrimido[5,4-e][1,2,4]triazine-5,7(1H,6H)-dione] | – | 23.88 ± 5.17 µM | 5030 ± 1180 nM | – |

| SMILES | melting point | LD50 [2] | IC50 [1, 4] | further results |
| --- | --- | --- | --- | --- |
| Cc1ccc(-c2nc3c(=O)n(C)c(=O)nc-3n(C)n2)cc1 [Compound 5e, 1,6-Dimethyl-3-(4-methylphenyl)pyrimido[5,4-e][1,2,4]triazine-5,7(1H,6H)-dione] | – | 0.84 ± 0.25 µM | 680 ± 90 nM | – |
| Cn1c(=O)nc2n(CCO)nc(-c3ccc(OCCN4CCCC4)cc3)nc-2c1=O [Compound 8f, 1-(2-Hydroxyethyl)-6-methyl-3-(4-(2-(pyrrolidin-1-yl)ethoxy)phenyl)pyrimido[5,4-e][1,2,4]triazine-5,7(1H,6H)-dione] | – | 1.55 ± 0.22 µM | 1340 ± 150 nM | – |
| Cn1c(=O)c2nc(-c3ccccc3)nnc2n(Cc2ccc([N+](=O)[O-])cc2)c1=O | 274 to 280 °C (dec.) | – | – | – |
| Cn1nc(-c2ccccc2)[n+]([O-])c2c(=O)n(C)c(=O)nc1-2 | – | 1.71 ± 46.77 µM | 490 ± 220 nM | – |
| Cn1nc(-c2ccc(Cl)cc2)nc2c(=O)n(C)c(=O)nc1-2 [Compound 5h, 3-(4-Chlorophenyl)-1,6-dimethylpyrimido[5,4-e][1,2,4]triazine-5,7(1H,6H)-dione] | – | 2.84 ± 0.80 µM | 1050 ± 290 nM | – |
| Cc1ccc(-c2n[nH]c3nc(=O)n(C)c(=O)c-3n2)cc1 [Compound 6a, 6-Methyl-3-p-tolylpyrimido[5,4-e][1,2,4]triazine-5,7(1H,6H)-dione] | – | >50 µM | 21100 ± 14100 nM | – |
| CCN(CC)CCOc1ccc(-c2nc3c(=O)n(C)c(=O)nc-3n(C)n2)cc1 [Compound 5l, 3-(4-(2-(Diethylamino)ethoxy)phenyl)-1,6-dimethylpyrimido[5,4-e][1,2,4]triazine-5,7(1H,6H)-dione] | – | 0.136 ± 1 µM | 16 ± 18 nM | – |
| Cn1c(=O)nc2n(CCO)nc(-c3ccccn3)nc-2c1=O [Compound 8j, 1-(2-Hydroxyethyl)-6-methyl-3-(pyridin-2-yl)pyrimido[5,4-e]-[1,2,4]triazine-5,7(1H,6H)-dione] | – | 9.55 ± 0.001 µM | 3810 ± 590 nM | – |
| Cn1nc(-c2ccccc2F)nc2c(=O)n(Cc3ccc(F)c(F)c3)c(=O)nc1-2 [Compound 17e, 6-(3,4-Difluorobenzyl)-3-(2-fluorophenyl)-1-methylpyrimido[5,4-e][1,2,4]triazine-5,7(1H,6H)-dione] | – | 0.48 ± 0.10 µM | 110 ± 60 nM | inhibitory activity of β-catenin-mediated transcription (in words) ([1]; IEC18-S33Y cells): antagonized β-catenin-mediated transcription |
| Cn1nc(-c2ccc(Cl)c(Cl)c2)nc2c(=O)n(C)c(=O)nc1-2 [Compound 5j, 3-(3,4-Dichlorophenyl)-1,6-dimethylpyrimido[5,4-e][1,2,4]triazine-5,7(1H,6H)-dione] | – | 30.1 ± 17.54 µM | – | IC50 ([1]; Rattus norvegicus): 9320 ± 7440 nM |
| Cn1nc(-c2ccc(Cl)cc2)[n+]([O-])c2c(=O)n(C)c(=O)nc1-2 | – | 2.01 ± 2.58 µM | 700 ± 150 nM | – |
| Cc1ccc(-c2nc3c(=O)n(C)c(=O)nc-3n(CCO)n2)cc1 [Compound 8b, 1-(2-Hydroxyethyl)-6-methyl-3-(4-methylphenyl)pyrimido[5,4-e][1,2,4]triazine-5,7(1H,6H)-dione] | – | 2.55 ± 21.76 µM | 320 ± 230 nM | – |
| Cn1c(=O)nc2n(CCO)nc(-c3ccc(Cl)cc3)nc-2c1=O [Compound 8c, 3-(4-Chlorophenyl)-1-(2-hydroxyethyl)-6-methylpyrimido[5,4-e][1,2,4]triazine-5,7(1H,6H)-dione] | – | 6.36 ± 21.76 µM | 4560 ± 8240 nM | – |
| Cn1nc(-c2ccccc2F)nc2c(=O)n(C)c(=O)nc1-2 [Compound 5g, 3-(2-Fluorophenyl)-1,6-dimethylpyrimido[5,4-e][1,2,4]triazine-5,7(1H,6H)-dione] | – | 0.71 ± 3.31 µM | 190 ± 14 nM | – |
| Cn1nc(-c2ccc(F)cc2)nc2c(=O)n(C)c(=O)nc1-2 [Compound 5f, 3-(4-Fluorophenyl)-1,6-dimethylpyrimido[5,4-e][1,2,4]triazine-5,7(1H,6H)-dione] | – | 1.10 ± 0.01 µM | 300 ± 70 nM | – |
| COc1ccc(-c2nc3c(=O)n(C)c(=O)nc-3n(CCO)n2)cc1OC | 215 to 218 °C (dec.) | – | – | – |
| Cn1c(=O)nc2[nH]nc(-c3ccccc3F)nc-2c1=O | 248 to 250 °C | – | – | – |
| CCc1nc2c(=O)n(C)c(=O)nc-2n(C)n1 [Compound 5c, 3-Ethyl-1,6-dimethylpyrimido[5,4-e][1,2,4]triazine-5,7(1H,6H)-dione] | – | 2.94 ± 10 µM | 1420 ± 250 nM | – |
| Cn1nc(-c2ccc([N+](=O)[O-])cc2)nc2c(=O)n(C)c(=O)nc1-2 | 220 to 223 °C | – | – | – |
